# Measured values: ChEMBL document CHEMBL1201862, “PubChem BioAssay data set” (2004)
# Active and inactive are the calls of the source.
# Key:
# [1] = molecular target: T1, Tyrosine-protein phosphatase non-receptor type 22 (Homo sapiens, UniProt Q9Y2R2); type: functional
# [2] = molecular target: T1, Tyrosine-protein phosphatase non-receptor type 22; type: functional; remark: listed apart in the source
# [3] = Luminescence Cell-Based Dose Confirmation HTS to Identify Activators of 5'UTR Stem-Loop Driven Alpha-Synuclein mRNA Translation in H4 Neuroglioblastoma Cells. [Related pubchem assays: 1829 (Project Summary), 1814 (Primary HTS)]; type: functional
# [4] = Luminescence Cell-Based Dose Response HTS to Identify Activators of Luciferase Translation or Activity in H4 […] Cells. [Related pubchem assays: 1829 (Project Summary), 1814 (Primary HTS)]; type: functional
# [5] = system: H4; assay: Luminescence Cell-Based Dose Response HTS to Identify Activators of 5'UTR Stem-Loop Driven Prion Protein mRNA Translation in H4 Neuroglioblastoma Cells. [Related pubchem assays: 1829 (Project Summary), 1814 (Primary HTS)]; type: functional; conditions: Homo sapiens
# [6] = molecular target: T2, Tyrosine-protein phosphatase non-receptor type 7 (Homo sapiens, UniProt P35236); type: functional
# T2 sequence (P35236 whole entry): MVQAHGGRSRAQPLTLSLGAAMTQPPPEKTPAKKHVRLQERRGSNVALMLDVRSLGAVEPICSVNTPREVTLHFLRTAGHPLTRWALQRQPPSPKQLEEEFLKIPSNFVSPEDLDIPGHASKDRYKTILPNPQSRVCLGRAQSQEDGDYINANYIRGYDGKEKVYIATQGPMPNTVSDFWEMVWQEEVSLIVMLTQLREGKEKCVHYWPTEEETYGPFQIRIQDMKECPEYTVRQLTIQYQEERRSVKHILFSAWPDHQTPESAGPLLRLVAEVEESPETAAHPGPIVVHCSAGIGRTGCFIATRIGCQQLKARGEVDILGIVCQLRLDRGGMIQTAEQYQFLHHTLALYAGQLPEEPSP
# [7] = system: HEK293; assay: cells; type: functional, cell-based; conditions: Homo sapiens
# [8] = system: HEK293; assay: cells; conditions: Homo sapiens
# [9] = system: HEK293; assay: cells; type: functional, cell-based; conditions: Homo sapiens; remark: listed apart in the source
# [10] = system: HEK293; assay: SAR analysis of compounds that are cytotoxic to HEK293 - Set 3. [Related pubchem assays (depositor defined):AID1575, AID1578, AID1848, AID1849, AID2001, AID2333, AID2334, AID2335, AID2337, AID2469]; type: functional, cell-based; conditions: Homo sapiens
# [11] = molecular target: T3, Nucleotide-binding oligomerization domain-containing protein 2 (Homo sapiens, UniProt Q9HC29); assay: inhibition of MDP-driven NOD2 NF-kB reporter – cell-based, set 3, SAR follow-up (AID 2799); type: functional
# T3 sequence (Q9HC29 whole entry, the tested form may be a part): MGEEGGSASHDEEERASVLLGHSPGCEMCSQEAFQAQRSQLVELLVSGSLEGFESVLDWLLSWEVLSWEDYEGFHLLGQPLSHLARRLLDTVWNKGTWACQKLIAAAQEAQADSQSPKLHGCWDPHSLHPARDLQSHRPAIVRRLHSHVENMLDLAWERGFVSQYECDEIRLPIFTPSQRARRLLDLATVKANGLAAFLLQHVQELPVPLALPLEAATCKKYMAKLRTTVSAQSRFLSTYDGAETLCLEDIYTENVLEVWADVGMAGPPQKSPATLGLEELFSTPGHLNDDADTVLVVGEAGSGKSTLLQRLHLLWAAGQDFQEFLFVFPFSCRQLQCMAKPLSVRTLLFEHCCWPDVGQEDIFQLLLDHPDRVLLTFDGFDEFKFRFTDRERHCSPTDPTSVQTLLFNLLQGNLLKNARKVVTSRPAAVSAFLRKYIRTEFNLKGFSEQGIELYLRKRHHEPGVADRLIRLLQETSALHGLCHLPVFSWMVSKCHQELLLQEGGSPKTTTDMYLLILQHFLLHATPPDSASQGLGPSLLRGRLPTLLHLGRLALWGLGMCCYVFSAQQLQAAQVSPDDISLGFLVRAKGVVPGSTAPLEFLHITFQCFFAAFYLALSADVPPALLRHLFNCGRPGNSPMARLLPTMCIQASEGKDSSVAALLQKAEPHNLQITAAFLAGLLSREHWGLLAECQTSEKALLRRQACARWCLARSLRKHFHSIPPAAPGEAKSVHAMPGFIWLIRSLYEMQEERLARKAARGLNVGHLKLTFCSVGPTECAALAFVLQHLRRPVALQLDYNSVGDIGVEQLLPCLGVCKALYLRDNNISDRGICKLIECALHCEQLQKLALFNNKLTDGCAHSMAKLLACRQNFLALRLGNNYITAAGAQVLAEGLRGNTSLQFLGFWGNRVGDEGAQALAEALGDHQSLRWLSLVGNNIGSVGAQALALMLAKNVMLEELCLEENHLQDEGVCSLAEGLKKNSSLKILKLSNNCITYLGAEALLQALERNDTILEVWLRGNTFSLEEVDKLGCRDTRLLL
# [12] = molecular target: T4, Tumor necrosis factor (Homo sapiens, UniProt P01375); assay: analog potency on TNFa NF-kB signaling – cell-based, set 3, SAR follow-up (AID 2801); type: functional
# T4 sequence (P01375 whole entry, the tested form may be a part): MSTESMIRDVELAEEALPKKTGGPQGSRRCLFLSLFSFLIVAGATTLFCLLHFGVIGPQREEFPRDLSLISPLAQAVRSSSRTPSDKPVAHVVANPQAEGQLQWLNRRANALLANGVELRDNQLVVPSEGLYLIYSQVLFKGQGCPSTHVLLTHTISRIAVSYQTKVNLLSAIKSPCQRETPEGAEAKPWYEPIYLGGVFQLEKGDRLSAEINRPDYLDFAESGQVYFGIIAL
# [13] = molecular target: T3, Nucleotide-binding oligomerization domain-containing protein 2; assay: inhibition of NOD2 signaling – set 2, SAR follow-up (AID 2475); type: functional
# [14] = system: HEK293; assay: NOD2 signaling inhibitors in MDP-stimulated cells, cell-based, uHTS, luminescence (AID 2001); type: functional; conditions: Homo sapiens
# [15] = molecular target: T3, Nucleotide-binding oligomerization domain-containing protein 2; assay: PubChem AID 2334; type: functional
# [16] = molecular target: T4, Tumor necrosis factor; assay: analog potency on TNFa NF-kB signaling – cell-based, revised, SAR follow-up (AID 2337); type: functional
# [17] = system: HEK293; assay: SAR analysis of compounds that are cytotoxic to HEK293 - Set 2. [Related pubchem assays (depositor defined):AID1575, AID1578, AID1849, AID2001, AID2333, AID2334, AID2335, AID2337, AID2800]; type: functional, cell-based; conditions: Homo sapiens
# [18] = molecular target: T5, Kappa-type opioid receptor (Homo sapiens, UniProt P41145); assay: kappa opioid receptor activation by imaging – image-based, set 3, SAR follow-up (AID 488833); type: functional
# T5 sequence (P41145 whole entry): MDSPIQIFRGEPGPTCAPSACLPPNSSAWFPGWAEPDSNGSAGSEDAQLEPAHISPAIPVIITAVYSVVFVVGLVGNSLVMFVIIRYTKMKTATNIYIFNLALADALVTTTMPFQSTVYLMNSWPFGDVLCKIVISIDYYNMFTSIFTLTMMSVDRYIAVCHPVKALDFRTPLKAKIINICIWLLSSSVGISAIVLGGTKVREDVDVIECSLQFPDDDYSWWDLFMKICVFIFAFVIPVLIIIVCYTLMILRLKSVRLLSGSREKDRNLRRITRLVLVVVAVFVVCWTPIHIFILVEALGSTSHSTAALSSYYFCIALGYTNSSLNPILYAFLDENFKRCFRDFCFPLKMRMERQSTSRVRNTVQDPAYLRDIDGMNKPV
# [19] = molecular target: Mu-type opioid receptor (Homo sapiens, UniProt P35372); assay: SAR Analysis of Agonists of the MOR Receptor using an Image-Based Assay - Set 3. [Related pubchem assays (depositor defined):AID1777, AID1785, AID1786, AID1966, AID2133, AID2136, AID2284, AID2285, AID2352]; type: functional
# Sequence of Mu-type opioid receptor (P35372 whole entry): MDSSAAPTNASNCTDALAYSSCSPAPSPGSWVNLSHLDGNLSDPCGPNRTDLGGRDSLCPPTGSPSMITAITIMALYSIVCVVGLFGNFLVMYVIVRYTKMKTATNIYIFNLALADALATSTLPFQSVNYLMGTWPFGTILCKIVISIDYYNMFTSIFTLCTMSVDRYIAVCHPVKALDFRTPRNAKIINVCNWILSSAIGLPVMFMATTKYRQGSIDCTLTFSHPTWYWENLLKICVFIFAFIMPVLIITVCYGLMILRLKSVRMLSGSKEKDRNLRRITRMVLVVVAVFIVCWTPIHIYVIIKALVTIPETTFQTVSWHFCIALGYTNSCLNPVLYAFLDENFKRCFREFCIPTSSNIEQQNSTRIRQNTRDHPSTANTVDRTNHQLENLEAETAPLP
# [20] = molecular target: Delta-type opioid receptor (Homo sapiens, UniProt P41143); assay: SAR Analysis of Agonists of the DOR Receptor using an Image-Based Assay - Set 3. [Related pubchem assays (depositor defined):AID1777, AID1786]; type: functional
# Sequence of Delta-type opioid receptor (P41143 whole entry): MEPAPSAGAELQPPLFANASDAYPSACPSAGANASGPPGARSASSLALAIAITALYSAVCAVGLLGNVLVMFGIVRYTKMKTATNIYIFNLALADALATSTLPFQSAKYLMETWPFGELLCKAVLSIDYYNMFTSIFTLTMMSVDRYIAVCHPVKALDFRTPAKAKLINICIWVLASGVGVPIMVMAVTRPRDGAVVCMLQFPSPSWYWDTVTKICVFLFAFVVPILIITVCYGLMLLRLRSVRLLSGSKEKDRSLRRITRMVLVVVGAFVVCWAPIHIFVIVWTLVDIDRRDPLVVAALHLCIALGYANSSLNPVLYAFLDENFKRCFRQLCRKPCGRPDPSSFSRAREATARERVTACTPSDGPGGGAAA
# [21] = molecular target: T5, Kappa-type opioid receptor; assay: SAR analysis of small molecule agonists of the kappa opioid receptor via a luminescent beta-arrestin assay - Set 3. [Related pubchem assays (depositor defined):AID1777, AID1785, AID1786, AID1966, AID2133, AID2136, AID2284, AID2500]; type: functional
# T1 sequence (Q9Y2R2 whole entry): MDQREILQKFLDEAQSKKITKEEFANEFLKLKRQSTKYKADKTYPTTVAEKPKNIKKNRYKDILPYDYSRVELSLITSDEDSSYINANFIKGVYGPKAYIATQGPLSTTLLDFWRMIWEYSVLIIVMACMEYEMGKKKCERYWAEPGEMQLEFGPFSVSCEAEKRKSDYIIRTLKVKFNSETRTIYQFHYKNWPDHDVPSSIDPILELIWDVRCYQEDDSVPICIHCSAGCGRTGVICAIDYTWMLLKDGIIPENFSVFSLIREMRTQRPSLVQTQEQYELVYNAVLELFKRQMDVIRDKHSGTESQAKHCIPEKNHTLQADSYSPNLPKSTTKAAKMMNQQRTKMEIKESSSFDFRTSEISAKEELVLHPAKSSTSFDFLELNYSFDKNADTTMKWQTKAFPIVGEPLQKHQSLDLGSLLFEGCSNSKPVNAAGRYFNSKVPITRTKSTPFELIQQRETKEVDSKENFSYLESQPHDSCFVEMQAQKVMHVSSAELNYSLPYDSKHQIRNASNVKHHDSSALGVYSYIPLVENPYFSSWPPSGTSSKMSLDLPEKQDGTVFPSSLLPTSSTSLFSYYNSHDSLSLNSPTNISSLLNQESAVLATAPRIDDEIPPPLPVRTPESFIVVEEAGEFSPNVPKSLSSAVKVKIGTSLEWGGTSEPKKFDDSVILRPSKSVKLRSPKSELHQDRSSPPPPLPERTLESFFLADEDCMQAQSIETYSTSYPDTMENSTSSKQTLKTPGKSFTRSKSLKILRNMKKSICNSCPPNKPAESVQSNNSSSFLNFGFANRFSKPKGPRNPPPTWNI
smiles,measurement,setting,value
O=C1C2C(C(=O)N1/N=C/c1cccc([N+](=O)[O-])c1)C1C=CC2C12CC2 (stereo unspecified),IC50,[1],> 79.4 µM (inactive)
same,IC50,[2],> 79.4 µM (inactive)
same,EC50,[3],15.4 µM (active)
same,EC50,[4],7.44 µM (active)
same,EC50,[5],87.7 µM (active)
same,IC50,[6],> 79.4 µM (inactive)
Cc1ccc(S(=O)(=O)n2c(N)nc3ccccc32)cc1,IC50,[7],> 20 µM (inactive)
same,IC50,[8],> 20 µM (inactive)
same,IC50,[9],> 20 µM (inactive)
same,IC50,[10],> 20 µM (inactive)
same,IC50,[11],> 20 µM (inactive)
same,IC50,[12],> 20 µM (inactive)
same,IC50,[13],> 20 µM (inactive)
same,IC50,[14],> 20 µM (inactive)
same,IC50,[15],> 20 µM (inactive)
same,IC50,[16],> 20 µM (inactive)
same,IC50,[17],> 20 µM (inactive)
FC(F)(F)c1ccc(CSc2nnc(-c3ccccn3)n2Cc2cccs2)cc1,EC50,[18],0.621 µM (active)
same,EC50,[19],> 32 µM (inactive)
same,EC50,[20],> 32 µM (inactive)
same,EC50,[21],1.23 µM (active)
